Experimental data: patent US20260098030A1, “NEGATIVE ALLOSTERIC MODULATORS OF METABOTROPIC GLUTAMATE RECEPTOR 2” (Vanderbilt University, priority 2022, published 2026)

These compounds were tested against T1, human mGlu2 (Homo sapiens, UniProt Q14416) (assay: mGlu GIRK cell-based thallium flux assay, human mGlu2). Details: HEK-293 cells co-expressing human mGlu2 and GIRK, EC80 glutamate.
T1 construct: expressed in transfected cells; host or cells: HEK-293 cells stably co-expressing GIRK channels
T1 sequence (Q14416 19-872): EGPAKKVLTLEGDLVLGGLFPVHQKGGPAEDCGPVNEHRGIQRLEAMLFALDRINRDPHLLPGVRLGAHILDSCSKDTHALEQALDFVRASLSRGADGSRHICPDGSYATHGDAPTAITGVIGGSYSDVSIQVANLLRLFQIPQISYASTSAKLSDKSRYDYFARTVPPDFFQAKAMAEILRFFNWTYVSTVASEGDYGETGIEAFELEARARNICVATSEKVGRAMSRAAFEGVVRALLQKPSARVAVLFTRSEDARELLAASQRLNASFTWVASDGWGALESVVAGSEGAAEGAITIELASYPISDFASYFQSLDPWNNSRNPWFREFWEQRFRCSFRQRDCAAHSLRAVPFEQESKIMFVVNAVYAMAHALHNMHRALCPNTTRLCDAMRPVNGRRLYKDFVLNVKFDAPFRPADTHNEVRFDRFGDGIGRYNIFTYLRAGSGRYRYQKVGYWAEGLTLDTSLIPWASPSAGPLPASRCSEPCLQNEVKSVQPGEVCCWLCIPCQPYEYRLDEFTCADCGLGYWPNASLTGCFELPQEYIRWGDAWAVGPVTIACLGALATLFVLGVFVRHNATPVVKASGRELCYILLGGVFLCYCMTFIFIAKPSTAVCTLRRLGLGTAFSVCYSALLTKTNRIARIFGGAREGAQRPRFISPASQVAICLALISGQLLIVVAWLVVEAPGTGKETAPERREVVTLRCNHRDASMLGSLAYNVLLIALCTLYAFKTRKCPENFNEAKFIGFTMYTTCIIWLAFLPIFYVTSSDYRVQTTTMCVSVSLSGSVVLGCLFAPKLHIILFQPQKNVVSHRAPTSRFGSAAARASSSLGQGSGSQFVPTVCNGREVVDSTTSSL
Method: Human embryonic kidney (HEK-293) cell lines stably co-expressing human or rat mGlu2 and G protein-coupled inwardly rectifying potassium (GIRK) channels, or human mGlu3 and GIRK, were used for in vitro evaluation of compound activity in thallium flux assay using a fluorescent thallium indicator dye.
The day before the assay, GIRK cells co-expressing human mGlu3, human or rat mGlu2, as described above, were plated in black-walled, clear-bottomed, amine-coated 384-well plates at a density of 15,000 cells/20 μL/well in the assay medium (glutamine-depleted basal DMEM supplemented with 10% dialyzed FBS, 20 mM HEPES, 1 mM sodium pyruvate). Cells were incubated at 37° C. in the presence of 5% CO2. The next day, assay buffer (Hanks balanced salt solution, 20 mM HEPES, 4.16 mM sodium bicarbonate, pH 7.2) was prepared to dilute compounds and Thallos AM fluorescent dye solution. The 2× Thallos dye solution (final concentration 0.34 μM to the cells) was prepared by mixing the dye stock (2.97 mM in DMSO) to 1:1 with 10% pluronic acid before adding to the assay buffer. Cells were washed with assay buffer using a microplate washer to remove the medium, resulting in 20 μL of buffer remaining in each well. Immediately, 20 μL of 2× Thallos dye solution was added to cells, and incubated for one hour at 25° C. During the cell dye loading incubation period, a 10-point concentration serial dilution of compound was created from a 10 mM DMSO compound stock by performing a 1:3 serial dilution in DMSO using the Bravo liquid handler. The 2× compound plate was generated by transferring 0.24 μL of the diluted compound in each well to a daughter plate using an Echo acoustic liquid handler. This is further diluted in 40 μL assay buffer, resulting in a range from 30 μM to 1.5 nM final concentration in the assay. The agonist plate (5×) was prepared to include EC80 glutamate concentration (a concentration to elicit 80% of a maximally effective glutamate concentration) in thallium buffer (125 mM […], 1 mM magnesium sulfate, 1.8 mM calcium sulfate, 5 mM glucose, 10 mM HEPES, pH 7.2, 12.5 mM thallium sulfate).
After dye-loading, cell plates were washed with assay buffer to remove excess extracellular dye using a microplate washer, resulting in 20 μL of buffer remaining in each well. After a ten-minute equilibration period, cell, compound and agonist plates were loaded into a Hamamatsu μCell kinetic imaging plate reader equipped with liquid handler to monitor fluorescence changes at 480 nm excitation and 540 nm emission settings. Briefly, after collection of baseline fluorescence, 20 μL of compound was added and incubated for two minutes and twenty seconds. This is immediately followed by adding 10 μL of glutamate-thallium buffer to the wells containing compound. The fluorescent signal was monitored an additional 2.5 minutes after the glutamate addition. Multiple reference wells containing no compound received either no glutamate (for a baseline reference), EC80 glutamate, or ECmax glutamate (for normalization to maximum response). Fluorescence was measured throughout the experiment at a frequency of 1 measurement per every 2 seconds before the glutamate addition and a frequency of 1 measurement per every 1 second after the glutamate addition. Each compound concentration series occurred one time in each plate, and replicates from two or three plates were used in each experimental run. Thallium solutions were handled and disposed of according to guidelines from the Vanderbilt University Chemical Safety department.
Data were normalized using a static ratio function (F/F0) by dividing every fluorescent measurement by the initial fluorescent value for the corresponding well. The increase in signal resulting from the glutamate/thallium addition of the second add was measured by determining the slope from 3 seconds to 13 seconds after the addition. […]

Compound	IC50
N#Cc1cccc(-c2cc3c(cc2-c2ccccc2F)C(=O)NC3)c1 [Compound 159, 3-(6-(2-fluorophenyl)-1-oxoisoindolin-5-yl)benzonitrile]	1720 nM
N#Cc1cccc(-c2cc3c(cc2-c2ccc(O)cc2F)C(=O)NC3)c1 [Compound 168, 3-(6-(2-fluoro-4-hydroxyphenyl)-1-oxoisoindolin-5-yl)benzonitrile]	> 10000 nM
O=C1NCc2cc(-c3ccnn3C3CCCCO3)c(-c3ccc(F)cc3F)cc21 (centres unmarked) [Compound 147, 6-(2,4-difluorophenyl)-5-(1-(tetrahydro-2H-pyran-2-yl)-1H-pyrazol-5-yl)isoindolin-1-one]	5910 nM
O=C1NCc2cc(-c3cnn(C4COC4)c3)c(-c3ccc(F)cc3F)cc21 [Compound 155, 6-(2,4-difluorophenyl)-5-(1-(oxetan-3-yl)-1H-pyrazol-4-yl)isoindolin-1-one]	> 10000 nM
N#Cc1cccc(-c2cc3c(cc2-c2ccc(C#N)c(C(F)(F)F)c2)C(=O)NC3)c1 [Compound 179, 4-(6-(3-cyanophenyl)-3-oxoisoindolin-5-yl)-2-(trifluoromethyl)benzonitrile]	> 10000 nM
N#Cc1cccc(-c2cc3c(cc2-c2ccc(F)c(C#N)c2)C(=O)NC3)c1 [Compound 178, 5-(6-(3-cyanophenyl)-3-oxoisoindolin-5-yl)-2-fluorobenzonitrile]	> 10000 nM
N#Cc1cccc(-c2cc3c(cc2-c2cc(C#N)ccc2F)C(=O)NC3)c1 [Compound 176, 3-(6-(3-cyanophenyl)-3-oxoisoindolin-5-yl)-4-fluorobenzonitrile]	> 10000 nM
N#Cc1cccc(-c2cc3c(cc2-c2cc(C(F)(F)F)ccc2F)C(=O)NC3)c1 [Compound 180, 3-(6-(2-fluoro-5-(trifluoromethyl)phenyl)-1-oxoisoindolin-5-yl)benzonitrile]	> 10000 nM
Cc1cc(F)ccc1-c1cc2c(cc1-c1cccc(C#N)c1)CNC2=O [Compound 143, 3-(6-(4-fluoro-2-methylphenyl)-1-oxoisoindolin-5-yl)benzonitrile]	1670 nM
CNS(=O)(=O)c1cccc(-c2cc3c(cc2-c2ccc(F)cc2F)C(=O)NC3)c1 [Compound 119, 3-(6-(2,4-difluorophenyl)-1-oxoisoindolin-5-yl)-N-methylbenzenesulfonamide]	2700 nM
Cc1ccc(C#N)cc1-c1cc2c(cc1-c1cccc(C#N)c1)CNC2=O [Compound 188, 3-(6-(3-cyanophenyl)-3-oxoisoindolin-5-yl)-4-methylbenzonitrilc]	> 10000 nM
Cc1cc(-c2cc3c(cc2-c2cccc(C#N)c2)CNC3=O)c(F)cc1C#N [Compound 181, 4-(6-(3-cyanophenyl)-3-oxoisoindolin-5-yl)-5-fluoro-2-methylbenzonitrile]	> 10000 nM
COc1cc(C#N)ccc1-c1cc2c(cc1-c1cccc(C#N)c1)CNC2=O [Compound 166, 4-(6-(3-cyanophenyl)-3-oxoisoindolin-5-yl)-3-methoxybenzonitrile]	2450 nM
COc1ccc(-c2cc3c(cc2-c2cccc(C#N)c2)CNC3=O)cc1F [Compound 171, 3-(6-(3-fluoro-4-methoxyphenyl)-1-oxoisoindolin-5-yl)benzonitrile]	3550 nM
Cc1noc(C)c1-c1cc2c(cc1-c1ccc(F)cc1F)C(=O)NC2 [Compound 126, 6-(2,4-difluorophenyl)-5-(3,5-dimethylisoxazol-4-yl)isoindolin-1-one]	> 10000 nM
CN1CCN(c2ccccc2-c2cc3c(cc2-c2ccc(F)cc2F)C(=O)NC3)CC1 [Compound 150, 6-(2,4-difluorophenyl)-5-(2-(4-methylpiperazin-1-yl)phenyl)isoindolin-1-one]	> 10000 nM
N#Cc1cccc(-c2cc3c(cc2-c2ccc(F)c(F)c2)C(=O)NC3)c1 [Compound 158, 3-(6-(3,4-difluorophenyl)-1-oxoisoindolin-5-yl)benzonitrile]	3730 nM
N#Cc1cccc(-c2cc3c(cc2-c2ccc(C(F)(F)F)cc2F)C(=O)NC3)c1 [Compound 144, 3-(6-(2-fluoro-4-(trifluoromethyl)phenyl)-1-oxoisoindolin-5-yl)benzonitrile]	3070 nM

Now those with a lower IC50, led by results:

IC50	Compound
737 nM	CNC(=O)c1cc(Cl)cc(-c2cc3c(cc2-c2ccc(F)cc2F)C(=O)NC3)c1 [Compound 117, 3-chloro-5-(6-(2,4-difluorophenyl)-1-oxoisoindolin-5-yl)-N-methylbenzamide]
1520 nM	N#Cc1cccc(-c2cc3c(cc2-c2cc(F)c(F)cc2F)C(=O)NC3)c1 [Compound 140, 3-(1-oxo-6-(2,4,5-trifluorophenyl)isoindolin-5-yl)benzonitrile]
736 nM	COc1ccc(-c2cc3c(cc2-c2cccc(C#N)c2)CNC3=O)c(F)c1 [Compound 157, 3-(6-(2-fluoro-4-methoxyphenyl)-1-oxoisoindolin-5-yl)benzonitrile]
529 nM	O=C1NCc2cc(-c3cnn(CC4CC4)c3)c(-c3ccc(F)cc3F)cc21 [Compound 132, 5-(1-(cyclopropylmethyl)-1H-pyrazol-4-yl)-6-(2,4-difluorophenyl)isoindolin-1-one]
537 nM	N#Cc1cccc(-c2cc3c(cc2-c2ccc(C#N)cc2F)C(=O)NC3)c1 [Compound 138, 4-(6-(3-cyanophenyl)-3-oxoisoindolin-5-yl)-3-fluorobenzonitrile]
1440 nM	CNC(=O)c1ccc(F)c(-c2cc3c(cc2-c2ccc(F)cc2F)C(=O)NC3)c1 [Compound 121, 3-(6-(2,4-difluorophenyl)-1-oxoisoindolin-5-yl)-4-fluoro-N-methylbenzamide]
366 nM	O=C1NCc2cc(-c3cnn(CC(F)(F)F)c3)c(-c3ccc(F)cc3F)cc21 [Compound 131, 6-(2,4-difluorophenyl)-5-(1-(2,2,2-trifluoroethyl)-1H-pyrazol-4-yl)isoindolin-1-one]
447 nM	N#Cc1cc(F)ccc1-c1cc2c(cc1-c1ccc(F)cc1F)C(=O)NC2 [Compound 123, 2-(6-(2,4-difluorophenyl)-1-oxoisoindolin-5-yl)-5-fluorobenzonitrile]
1350 nM	Cc1cc(-c2cc3c(cc2-c2cccc(C#N)c2)CNC3=O)c(F)cc1F [Compound 177, 3-(6-(2,4-difluoro-5-methylphenyl)-1-oxoisoindolin-5-yl)benzonitrile]
481 nM	N#Cc1cccc(CCc2cc3c(cc2-c2ccc(F)cc2F)C(=O)NC3)c1 [Compound A4, 3-(2-(6-(2,4-difluorophenyl)-1-oxoisoindolin-5-yl)ethyl)benzonitrile]
1290 nM	CS(=O)(=O)c1cccc(-c2cc3c(cc2-c2ccc(F)cc2F)C(=O)NC3)c1 [Compound 122, 6-(2,4-difluorophenyl)-5-(3-(methylsulfonyl)phenyl)isoindolin-1-one]
660 nM	COc1cc(F)ccc1-c1cc2c(cc1-c1cccc(C#N)c1)CNC2=O [Compound 156, 3-(6-(4-fluoro-2-methoxyphenyl)-1-oxoisoindolin-5-yl)benzonitrile]
1000 nM	CC(C)Cn1cc(-c2cc3c(cc2-c2ccc(F)cc2F)C(=O)NC3)cn1 [Compound 130, 6-(2,4-difluorophenyl)-5-(1-isobutyl-1H-pyrazol-4-yl)isoindolin-1-one]
816 nM	Nc1ccccc1-c1cc2c(cc1-c1ccc(F)cc1F)C(=O)NC2 [Compound 137, 5-(2-aminophenyl)-6-(2,4-difluorophenyl)isoindolin-1-one]
